Test results taken from patent US20230295212A1 (ROME Therapeutics, Inc., priority 2022, published 2023).

Target: T1, LINE1 reverse transcriptase (Homo sapiens, UniProt O00370)
T1 construct: expressed in transfected cells; host or cells: HeLa Tet-On 3G (Takara, cat no 631183)
Assay: Stable artificial-intron Cis LINE1 reporter assay (HeLa Tet-On 3G, Firefly luciferase)
Type: cell-based
Details: HeLa L1 artificial-intron reporter cells, doxycycline 500 ng/mL, 72 h, class symbols
Procedure: Exemplary compounds, were tested for the ability to inhibit LINE1 reverse transcriptase using a stable artificial-intron Cis LINE1 reporter assay. Assay procedures and results are described below.
A stable HeLa Tet-On 3G (Takara, cat no 631183) cell line expressing a bi-directional inducible LINE1 construct was generated as described in Xie, Y. et al. “Cell division promotes efficient retrotransposition in a stable L1 reporter cell line,” Mobile DNA (2013) 4:10. Single cell clones were screened for high Luciferase expression and the highest expression Firefly expressing clone was chosen for compound testing.
Test compounds were serially diluted in DMSO and spotted in 96-well plates. Subsequently, the HeLa Li artificial-intron reporter cells were plated into the compound-containing wells (8,000 cells/well), and the cells were induced for reporter expression with doxycycline (Sigma-Aldrich cat #D9891) at a final concentration of 500 ng/mL. Luminescence was measured 72 h after plating using the Dual-Glo Luciferase Assay System (Promega cat #E2940) following the manufacturer's instructions. The Firefly Luciferase activity was used to report LINE1 activity.

T1 sequence (O00370 whole entry, looked up): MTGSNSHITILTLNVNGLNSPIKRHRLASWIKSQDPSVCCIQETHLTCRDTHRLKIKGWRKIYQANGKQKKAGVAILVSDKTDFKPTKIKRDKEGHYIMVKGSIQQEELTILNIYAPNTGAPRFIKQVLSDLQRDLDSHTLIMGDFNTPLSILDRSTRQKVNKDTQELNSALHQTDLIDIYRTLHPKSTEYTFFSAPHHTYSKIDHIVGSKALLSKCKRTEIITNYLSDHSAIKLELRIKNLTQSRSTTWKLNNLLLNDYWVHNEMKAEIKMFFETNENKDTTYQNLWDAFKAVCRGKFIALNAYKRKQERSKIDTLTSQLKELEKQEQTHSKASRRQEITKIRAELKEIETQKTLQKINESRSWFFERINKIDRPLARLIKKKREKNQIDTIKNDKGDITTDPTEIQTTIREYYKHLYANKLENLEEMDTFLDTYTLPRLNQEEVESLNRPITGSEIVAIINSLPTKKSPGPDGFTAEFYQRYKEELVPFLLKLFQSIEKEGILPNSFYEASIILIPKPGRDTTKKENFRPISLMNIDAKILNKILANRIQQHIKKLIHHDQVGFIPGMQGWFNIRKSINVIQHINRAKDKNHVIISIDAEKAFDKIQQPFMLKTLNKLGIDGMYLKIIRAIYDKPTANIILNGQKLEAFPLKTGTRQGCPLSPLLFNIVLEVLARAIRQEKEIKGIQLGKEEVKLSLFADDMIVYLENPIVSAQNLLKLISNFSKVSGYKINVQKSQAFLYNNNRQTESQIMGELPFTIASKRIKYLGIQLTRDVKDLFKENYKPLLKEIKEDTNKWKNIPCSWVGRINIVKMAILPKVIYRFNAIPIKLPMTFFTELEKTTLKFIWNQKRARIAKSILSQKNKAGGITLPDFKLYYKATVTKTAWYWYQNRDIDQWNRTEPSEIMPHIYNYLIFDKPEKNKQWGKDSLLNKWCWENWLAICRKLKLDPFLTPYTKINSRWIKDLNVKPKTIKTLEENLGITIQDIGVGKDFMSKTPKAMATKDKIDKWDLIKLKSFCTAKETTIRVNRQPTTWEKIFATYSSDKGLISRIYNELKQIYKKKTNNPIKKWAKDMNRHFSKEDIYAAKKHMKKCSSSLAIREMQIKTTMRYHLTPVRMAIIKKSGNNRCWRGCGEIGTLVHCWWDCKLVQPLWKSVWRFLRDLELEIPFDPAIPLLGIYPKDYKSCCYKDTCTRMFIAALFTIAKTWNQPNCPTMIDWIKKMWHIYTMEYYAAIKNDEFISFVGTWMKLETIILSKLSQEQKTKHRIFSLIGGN

| IC50 [nM] | SMILES |
| --- | --- |
| 250 to 1000 | C#C[C@]1(CO)O[C@@H](n2cc(C)c(=O)[nH]c2=O)[C@@H](F)[C@@H]1O [Compound 39, 1-((2R,3S,4R,5R)-5-ethynyl-3-fluoro-4-hydroxy-5-(hydroxymethyl)tetrahydrofuran-2-yl)-5-methylpyrimidine-2,4(1H,3H)-dione] |
| ≤ 50 | C#C[C@]1(CO)O[C@@H](n2cnc3c(N)nc(F)nc32)[C@@H](F)[C@@H]1O [Compound 42, (2R,3R,4S,5R)-5-(6-amino-2-fluoro-9H-purin-9-yl)-2-ethynyl-4-fluoro-2-(hydroxymethyl) tetrahydrofuran-3-ol] |
| ≤ 50 | CC[C@]1(CO)O[C@@H](n2ccc(N)nc2=O)C[C@@H]1O [Compound 44, 4-amino-1-((2R,4S,5R)-5-ethyl-4-hydroxy-5-(hydroxymethyl)tetrahydrofuran-2-yl)pyrimidin-2(1H)-one] |
| 50 to 100 | Nc1ccn([C@H]2C[C@H](O)[C@](CO)(CF)O2)c(=O)n1 [Compound 45, 4-amino-1-((2R,4S,5R)-5-(fluoromethyl)-4-hydroxy-5-(hydroxymethyl)tetrahydrofuran-2-yl)pyrimidin-2(1H)-one] |
| 50 to 100 | Nc1nc2c(ncn2[C@H]2C[C@H](O)[C@](CO)(CF)O2)c(=O)[nH]1 [Compound 46, 2-amino-9-((2R,4S,5R)-5-(fluoromethyl)-4-hydroxy-5-(hydroxymethyl)tetrahydrofuran-2-yl)-1,9-dihydro-6H-purin-6-one] |
| ≤ 50 | C=C[C@]1(CO)O[C@@H](n2ccc(N)nc2=O)[C@@H](F)[C@@H]1O [Compound 47, 4-amino-1-((2R,3S,4R,5R)-3-fluoro-4-hydroxy-5-(hydroxymethyl)-5-vinyltetrahydrofuran-2-yl)pyrimidin-2(1H)-one] |
| 50 to 100 | CO[C@]1(CO)O[C@@H](n2ccc(N)nc2=O)C[C@@H]1O [Compound 48, 4-amino-1-((2R,4S,5R)-4-hydroxy-5-(hydroxymethyl)-5-methoxytetrahydrofuran-2-yl)pyrimidin-2(1H)-one] |
| 50 to 100 | [N-]=[N+]=N[C@]1(CO)O[C@@H](n2ccc(N)nc2=O)C[C@@H]1O [Compound 49, 4-amino-1-((2R,4S,5R)-5-azido-4-hydroxy-5-(hydroxymethyl)tetrahydrofuran-2-yl)pyrimidin-2(1H)-one] |
| ≤ 50 | [N-]=[N+]=N[C@]1(CO)O[C@@H](n2ccc(N)nc2=O)[C@@H](F)[C@@H]1O [Compound 50, 4-amino-1-((2R,3S,4R,5R)-5-azido-3-fluoro-4-hydroxy-5-(hydroxymethyl)tetrahydrofuran-2-yl)pyrimidin-2(1H)-one] |
| ≤ 50 | CC[C@]1(CO)O[C@@H](n2ccc(N)nc2=O)[C@@H](F)[C@@H]1O [Compound 51, 4-amino-1-((2R,3S,4R,5R)-5-ethyl-3-fluoro-4-hydroxy-5-(hydroxymethyl)tetrahydrofuran-2-yl)pyrimidin-2(1H)-one] |
| 100 to 250 | CC[C@]1(COC(=O)C(C)C)O[C@@H](n2ccc(N)nc2=O)C[C@@H]1OC(=O)C(C)C [Compound 52, [(2R,3S,5R)-5-(4-amino-2-oxopyrimidin-1-yl)-2-ethyl-3-[(2-methylpropanoyl)oxy]oxolan-2-yl] methyl 2-methylpropanoate] |
| 250 to 1000 | C=C[C@]1(COC(=O)C(C)C)O[C@@H](n2ccc(N)nc2=O)C[C@@H]1OC(=O)C(C)C [Compound 53, [(2R,3S,5R)-5-(4-amino-2-oxopyrimidin-1-yl)-2-ethenyl-3-[(2-methylpropanoyl)oxy]oxolan-2-yl] methyl 2-methylpropanoate] |
| > 1000 | CC(C)[C@]1(CO)O[C@@H](n2ccc(N)nc2=O)C[C@@H]1O [Compound 55, 4-amino-1-[(2R,4S,5R)-4-hydroxy-5-(hydroxymethyl)-5-isopropyloxolan-2-yl] pyrimidin-2-one] |
| 100 to 250 | C=CCC1(CO)O[C@@H](n2ccc(N)nc2=O)C[C@@H]1O (stereo partly drawn) [Compound 56, 1-((2R,4S)-5-allyl-4-hydroxy-5-(hydroxymethyl)tetrahydrofuran-2-yl)-4-aminopyrimidin-2(1H)-one] |
| > 1000 | CCCC1(CO)O[C@@H](n2ccc(N)nc2=O)C[C@@H]1O (stereo partly drawn) [Compound 57, 4-amino-1-((2R,4S,5R)-4-hydroxy-5-(hydroxymethyl)-5-propyltetrahydrofuran-2-yl)pyrimidin-2(1H)-one] |
| 50 to 100 | CC(C)C(=O)OC[C@@]1(CCl)O[C@@H](n2cc(F)c(N)nc2=O)C[C@@H]1OC(=O)C(C)C [Compound 58] |
| > 1000 | Nc1ccn([C@H]2C[C@@H](O)[C@](CO)(CCl)O2)c(=O)n1 [Compound 59, 4-amino-1-[(2R,4R,5R)-5-(chloromethyl)-4-hydroxy-5-(hydroxymethyl)oxolan-2-yl] pyrimidin-2-one] |
| > 1000 | CCC[C@]1(CO)O[C@@H](n2ccc(N)nc2=O)C[C@@H]1O [Compound 60, 4-amino-1-((2R,4S,5R)-4-hydroxy-5-(hydroxymethyl)-5-propyltetrahydrofuran-2-yl)pyrimidin-2(1H)-one] |
| ≤ 50 | [N-]=[N+]=N[C@]1(CO)O[C@@H](n2cc(F)c(N)nc2=O)C[C@@H]1O [Compound 61, 4-amino-1-((2R,4S,5R)-5-azido-4-hydroxy-5-(hydroxymethyl)tetrahydrofuran-2-yl)-5-fluoropyrimidin-2(1H)-one] |
| 250 to 1000 | Nc1ccn([C@H]2C[C@H](O)[C@](CO)(CC(F)(F)F)O2)c(=O)n1 [Compound 62, 4-amino-1-[(2R,4S,5R)-4-hydroxy-5-(hydroxymethyl)-5-(2,2,2-trifluoroethyl)oxolan-2-yl] pyrimidin-2-one] |
| 250 to 1000 | C=C[C@]1(CO)O[C@@H](n2cnc3c(=O)[nH]c(N)nc32)[C@@H](F)[C@@H]1O [Compound 63, 2-amino-9-[(2R,3S,4R,5R)-5-ethenyl-3-fluoro-4-hydroxy-5-(hydroxymethyl)oxolan-2-yl]-1H-purin-6-one] |
| 50 to 100 | CC[C@]1(CO)O[C@@H](n2cnc3c(N)nc(F)nc32)C[C@@H]1O [Compound 64, (2R,3S,5R)-5-(6-amino-2-fluoro-9H-purin-9-yl)-2-ethyl-2-(hydroxymethyl)tetrahydrofuran-3-ol] |
| ≤ 50 | Nc1nc(=O)n([C@H]2C[C@H](O)[C@](CO)(C(F)F)O2)cc1F [Compound 65, 4-amino-1-[(2R,4S,5R)-5-(difluoromethyl)-4-hydroxy-5-(hydroxymethyl)oxolan-2-yl]-5-fluoropyrimidin-2-one] |
| 250 to 1000 | Nc1nc(=O)n([C@H]2C[C@H](O)[C@](CO)(C(F)(F)F)O2)cc1F [Compound 66, 4-amino-5-fluoro-1-((2R,4S,5R)-4-hydroxy-5-(hydroxymethyl)-5-(trifluoromethyl)tetrahydrofuran-2-yl)pyrimidin-2(1H)-one] |
| 100 to 250 | CC[C@]1(CO)O[C@@H](n2cnc3c(=O)[nH]c(N)nc32)[C@@H](F)[C@@H]1O [Compound 68, 2-amino-9-((2R,3S,4R,5R)-5-ethyl-3-fluoro-4-hydroxy-5-(hydroxymethyl)tetrahydrofuran-2-yl)-1,9-dihydro-6H-purin-6-one] |
| ≤ 50 | C=C[C@]1(CO)O[C@@H](n2cnc3c(O)nc(N)nc32)C[C@@H]1O [Compound 69, 2-amino-9-((2R,4S,5R)-4-hydroxy-5-(hydroxymethyl)-5-vinyltetrahydrofuran-2-yl)-1,9-dihydro-6H-purin-6-one] |
| > 1000 | Nc1nc2c(ncn2[C@@H]2O[C@@](CO)(CCl)[C@@H](O)[C@@H]2F)c(=O)[nH]1 [Compound 70, 2-amino-9-((2R,3S,4R,5R)-5-(chloromethyl)-3-fluoro-4-hydroxy-5-(hydroxymethyl)-tetrahydrofuran-2-yl)-1,9-dihydro-6H-purin-6-one] |
| 250 to 1000 | Nc1nc(=O)n([C@@H]2O[C@@](CO)(CF)[C@@H](O)[C@@H]2O)cc1F [Compound 72, 4-amino-5-fluoro-1-((2R,3S,4S,5R)-5-(fluoromethyl)-3,4-dihydroxy-5-(hydroxymethyl)tetrahydrofuran-2-yl)pyrimidin-2(1H)-one] |
| ≤ 50 | Nc1nc(=O)n([C@@H]2O[C@@](CO)(CCl)[C@@H](O)[C@@H]2O)cc1F [Compound 73, 4-amino-1-((2R,3S,4S,5R)-5-(chloromethyl)-3,4-dihydroxy-5-(hydroxymethyl)tetrahydrofuran-2-yl)-5-fluoropyrimidin-2(1H)-one] |

| SMILES | IC50 [nM] |
| --- | --- |
| C#C[C@]1(CO)O[C@@H](n2ccc(N)nc2=O)C[C@@H]1O [Compound 41, 4-amino-1-((2R,4S,5R)-5-ethynyl-4-hydroxy-5-(hydroxymethyl)tetrahydrofuran-2-yl)pyrimidin-2(1H)-one] | ≤ 50 |
| C=C[C@]1(CO)O[C@@H](n2ccc(N)nc2=O)C[C@@H]1O [Compound 43, 4-amino-1-((2R,4S,5R)-4-hydroxy-5-(hydroxymethyl)-5-vinyltetrahydrofuran-2-yl)pyrimidin-2(1H)-one] | ≤ 50 |

Same assay, conditions: HeLa L1 artificial-intron reporter cells, doxycycline 500 ng/mL, 72 h, numeric bounds

| IC50 [nM] | SMILES |
| --- | --- |
| > 30000 | CO[C@H]1C[C@H](n2ccc(N)nc2=O)O[C@@]1(CO)CCl [Compound 54, 4-amino-1-[(2R,4S,5R)-5-(chloromethyl)-5-(hydroxymethyl)-4-methoxyoxolan-2-yl]-3,4-dihydropyrimidin-2-one] |
| > 30000 | Nc1nc(=O)n([C@H]2C[C@H](O)[C@](CO)(CCl)O2)cc1C(F)(F)F [Compound 71, 4-amino-1-((2R,4S,5R)-5-(chloromethyl)-4-hydroxy-5-(hydroxymethyl)tetrahydrofuran-2-yl)-5-(trifluoromethyl)pyrimidin-2(1H)-one] |
